The target of this assay is T1, human capsaicin receptor (VR1) (Homo sapiens, UniProt Q8NER1).
T1 construct: transfected with the pBK-CMV expression construct encoding the full length human capsaicin receptor; expressed in transfected cells
Description: Capsaicin receptor binding assay ([3H]RTX competition). Conditions: read-out: Ki. The source says:
This Example illustrates the preparation of VR1-transfected cells and membrane preparations for use in binding assays (Example 5) and functional assays (Example 6).
A cDNA encoding full length human capsaicin receptor (SEQ ID NO: 1, 2 or 3 of U.S. Pat. No. 6,482,611) was subcloned in the plasmid pBK-CMV (Stratagene, La Jolla, Calif.) for recombinant expression in mammalian cells.
Human embryonic kidney (HEK293) cells were transfected with the pBK-CMV expression construct encoding the full length human capsaicin receptor using standard methods. The transfected cells were selected for two weeks in media containing G418 ([…]) to obtain a pool of stably transfected cells. Independent clones were isolated from this pool by limiting dilution to obtain clonal stable cell lines for use in subsequent experiments.
For radioligand binding experiments, cells were seeded in T175 cell culture flasks in media without antibiotics and grown to approximately 90% confluency. The flasks were then washed with PBS and harvested in PBS containing 5 mM EDTA. The cells were pelleted by gentle centrifugation and stored at −80° C. until assayed.
Previously frozen cells were disrupted with the aid of a tissue homogenizer in ice-cold HEPES homogenization buffer (5mM KCl 5, 5.8 mM NaCl, 0.75 mM CaCl2, 2 mM MgCl2, 320 mM sucrose, and 10 mM HEPES pH 7.4). Tissue homogenates were first centrifuged for 10 minutes at 1000×g (4° C.) to remove the nuclear fraction and debris, and then the supernatant from the first centrifugation is further centrifuged for 30 minutes at 35,000×g (4° C.) to obtain a partially purified membrane fraction. Membranes were resuspended in the HEPES homogenization buffer prior to the assay. An aliquot of this membrane homogenate is used to determine protein concentration via the Bradford method (BIO-RAD Protein Assay Kit, #500-0001, BIO-RAD, Hercules, Calif.).
This Example illustrates a representative assay of capsaicin receptor binding that may be used to determine the binding affinity of compounds for the capsaicin (VR1) receptor.
Binding studies with [^3H] Resiniferatoxin (RTX) are carried out essentially as described by Szallasi and Blumberg (1992) J. Pharmacol. Exp. Ter. 262: 883-888. In this protocol, non-specific RTX binding is reduced by adding bovine alpha, acid glycoprotein (100 μg per tube) after the binding reaction has been terminated.
[^3H] RTX (37 Ci/mmol) is synthesized by and obtained from the Chemical Synthesis and Analysis Laboratory, National Cancer Institute-Frederick Cancer Research and Development Center, Frederick, Md. [^3H] RTX may also be obtained from commercial vendors (e.g., Amersham Pharmacia Biotech, Inc.; Piscataway, N.J.).
The membrane homogenate of Example 4 is centrifuged as before and resuspended to a protein concentration of 333 μg/ml in homogenization buffer. Binding assay mixtures are set up on ice and contain [^3H]JRTX (specific activity 2200 mCi/ml), 2 μl non-radioactive test compound, 0.25 mg/ml bovine serum albumin (Cohn fraction V), and 5×10^4−1×10^5 VR1-transfected cells. The final volume is adjusted to 500 μl (for competition binding assays) or 1,000 μl (for saturation binding assays) with the ice-cold HEPES homogenization buffer solution (pH 7.4) described above. Non-specific binding is defined as that occurring in the presence of 1 μM non-radioactive RTX (Alexis Corp.; San Diego, Calif.). For saturation binding, [^3H]RTX is added in the concentration range of […], using 1 to 2 dilutions. Typically 11 concentration points are collected per saturation binding curve.
Competition binding assays are performed in the presence of 60 pM [^3H]RTX and various concentrations of test compound. The binding reactions are initiated by transferring the assay mixtures into a 37° C. water bath and are terminated following a 60 minute incubation period by cooling the tubes on ice.

pKi: −log10 of the molar value. Where only a bound is given, the exact number is not on record here.

T1 sequence (Q8NER1 whole entry): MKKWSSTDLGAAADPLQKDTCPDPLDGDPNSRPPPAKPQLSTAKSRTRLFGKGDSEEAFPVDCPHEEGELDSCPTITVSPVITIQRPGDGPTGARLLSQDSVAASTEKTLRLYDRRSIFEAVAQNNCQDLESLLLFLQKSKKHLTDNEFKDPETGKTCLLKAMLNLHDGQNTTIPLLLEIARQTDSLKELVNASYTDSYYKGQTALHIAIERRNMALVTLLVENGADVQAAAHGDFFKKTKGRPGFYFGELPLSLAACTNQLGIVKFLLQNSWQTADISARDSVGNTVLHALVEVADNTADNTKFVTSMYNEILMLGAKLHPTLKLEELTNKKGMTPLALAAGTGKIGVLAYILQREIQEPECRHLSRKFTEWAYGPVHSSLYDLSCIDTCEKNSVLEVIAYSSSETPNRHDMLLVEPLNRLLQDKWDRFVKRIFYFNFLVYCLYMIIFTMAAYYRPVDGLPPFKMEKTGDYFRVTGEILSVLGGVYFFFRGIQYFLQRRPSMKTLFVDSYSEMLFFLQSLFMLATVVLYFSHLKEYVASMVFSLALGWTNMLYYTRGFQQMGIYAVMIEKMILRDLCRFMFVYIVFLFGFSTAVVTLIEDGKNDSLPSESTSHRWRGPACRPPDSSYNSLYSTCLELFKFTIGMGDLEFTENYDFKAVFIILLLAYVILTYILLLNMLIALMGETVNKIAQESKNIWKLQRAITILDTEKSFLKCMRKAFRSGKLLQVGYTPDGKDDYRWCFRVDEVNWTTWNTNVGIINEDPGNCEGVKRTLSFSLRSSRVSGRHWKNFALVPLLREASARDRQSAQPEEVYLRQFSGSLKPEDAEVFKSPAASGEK

Take `COc1cccc(NC(=O)c2ccc(-c3cccc(C)c3)nc2)c1` [Compound 280, N-(3-Methoxy-phenyl)-6-m-tolyl-nicotinamide]: the pKi is > 6.00.

In the case of `CC(C)(C)c1cccc(NC(=O)c2ccc(-c3cccc(F)c3)nc2)c1` [Compound 296, N-(3-tert-Butyl-phenyl)-6-(3-fluoro-phenyl)-nicotinamide], the pKi was > 6.00.

`CS(=O)(=O)N(c1cccnc1-c1ccc(C(=O)Nc2ccc(C(F)(F)F)cc2)cc1)S(C)(=O)=O` [Compound 456, N-(4-Trifluoromethyl-phenyl)-4-[3-(N,N-dimethanesulfonyl)amino-pyridin-2-yl]-benzamide]: the pKi is > 6.00.

For the compound `CC(C)(C)c1ccc(NC(=O)c2ccc(-c3ncc(Cl)cc3Cl)cc2)cc1` [Compound 400, N-(4-tert-Butyl-phenyl)-4-(3,5-dichloro-pyridin-2-yl)-benzamide], the pKi was > 6.00.

For `CC(C)(C)c1ccc(NC(=O)c2ccc(-c3ncccc3N(S(C)(=O)=O)S(C)(=O)=O)cc2)cc1` [Compound 426, N-(4-tert-Butyl-phenyl)-4-[3-(N,N-dimethanesulfonyl)amino-pyridin-2-yl]-benzamide], the negative-log Ki (pKi) was > 6.00.

For the compound `O=C(Nc1ccc(C(F)(F)F)cc1)c1ccc(-c2ncccc2F)cc1` [Compound 35, 4-(3-Fluoro-pyridin-2-yl)-N-(4-trifluoromethyl-phenyl)-benzamide], the pKi is > 6.00.

In the case of `CC(C)c1ccc(NC(=O)c2ccc(-c3cccc(F)c3)nc2)cc1` [Compound 127, 6-(3-Fluoro-phenyl)-N-(4-isopropyl-phenyl)-nicotinamide], the negative-log Ki (pKi) was > 6.00.

Regarding `CC(=O)c1ccccc1-c1ccc(C(=O)Nc2ccc(C(C)(C)C)cc2)cn1` [Compound 60, 6-(2-Acetyl-phenyl)-N-(4-tert-butyl-phenyl)-nicotinamide], the negative logarithm of the Ki (pKi) is > 6.00.

As to `CC(C)(C)c1ccc(NC(=O)c2cnc(-c3ccccc3Cl)c(Cl)c2)cc1` [Compound 435, N-(4-tert-Butyl-phenyl)-5-chloro-6-(2-chloro-phenyl)-nicotinamide], the pKi is > 6.00.

Turning to `CC(=O)N1CCCCC1c1ccc(C(=O)Nc2ccc(C(C)(C)C)cc2)cc1` (stereo not drawn) [Compound 22, 4-(1-Acetyl-piperidin-2-yl)-N-(4-tert-butyl-phenyl)-benzamide], the pKi is > 6.00.

Consider `Nc1cc(-c2ncccc2C(F)(F)F)ccc1C(=O)Nc1ccc(C(F)(F)F)nc1` [Compound 14, 2-Amino-N-(6-trifluoromethyl-pyridin-3-yl)-4-(3-trifluoromethyl-pyridin-2-yl)-benzamide], for which the pKi was > 6.00.

With `Cc1cc(NC(=O)c2ccc(-c3ncccc3F)cc2)ccc1C(C)C` [Compound 33, 4-(3-Fluoro-pyridin-2-yl)-N-(4-isopropyl-3-methyl-phenyl)-benzamide], the pKi was > 6.00.

As for `CC(C)(C)c1ccc(NC(=O)c2ccc(-c3ncccc3N)cc2)cc1` [Compound 23, 4-(3-Amino-pyridin-2-yl)-N-(4-tert-butyl-phenyl)-benzamide], the pKi is > 6.00.

As for `CC(C)(C)c1ccc(NC(=O)c2ccc(-c3ccncc3N)cc2)cc1` [Compound 24, 4-(3-Amino-pyridin-4-yl)-N-(4-tert-butyl-phenyl)-benzamide], the pKi was > 6.00.

Take `CC(C)(C)c1ccc(NC(=O)c2ccc(-c3ncccc3CN3CCCC3)cc2)cc1` [Compound 420, N-(4-tert-Butyl-phenyl)-4-(3-pyrrolidin-1-ylmethyl-pyridin-2-yl)-benzamide]: the pKi is > 6.00.

On to `Cc1nnc(-c2cccnc2-c2ccc(C(=O)Nc3ccc(C(C)(C)C)cc3)cc2)o1` [Compound 424, N-(4-tert-Butyl-phenyl)-4-[3-(5-methyl-[1,3,4]oxadiazol-2-yl)-pyridin-2-yl]-benzamide], for which the pKi is > 6.00.

For `CC(C)(C)c1ccc(NC(=O)c2ccc(-c3cccc(F)c3)nc2)cc1` [Compound 448, N-(4-tert-Butyl-phenyl)-6-(3-fluoro-phenyl)-nicotinamide], the pKi is > 6.00.

Turning to `O=C(Nc1ccc2c(c1)CCC2)c1ccc(-c2cccc(F)c2)nc1` [Compound 129, 6-(3-Fluoro-phenyl)-N-indan-5-yl-nicotinamide], the pKi was > 6.00.

On to `O=C(Nc1ccc2c(c1)OCCCO2)c1ccc(-c2cccc(F)c2)nc1` [Compound 220, N-(3,4-Dihydro-2H-benzo[b][1,4]dioxepin-7-yl)-6-(3-fluoro-phenyl)-nicotinamide], for which the pKi is > 6.00.

For `CC(C)(C)c1ccc(NC(=O)c2ccc(-c3ncc(C(F)(F)F)cc3Cl)cc2)cc1` [Compound 402, N-(4-tert-Butyl-phenyl)-4-(3-chloro-5-trifluoromethyl-pyridin-2-yl)-benzamide], the pKi is > 6.00.

On to `CCc1ccc(NC(=O)c2ccc(-c3ccccc3C)nc2)cc1` [Compound 374, N-(4-Ethyl-phenyl)-6-o-tolyl-nicotinamide], for which the pKi was > 6.00.

Take `Cc1nc2cc(NC(=O)c3ccc(-c4cccc(C(C)C)c4)nc3)ccc2s1` [Compound 130, 6-(3-Isopropyl-phenyl)-N-(2-methyl-benzothiazol-5-yl)-nicotinamide]: the pKi was > 6.00.

Consider `CC(C)(C)c1ccc(NC(=O)c2cnc(-c3ccccc3)c(Cl)c2)cc1` [Compound 436, N-(4-tert-Butyl-phenyl)-5-chloro-6-phenyl-nicotinamide], for which the pKi is > 6.00.

As for `CC(C)(C)c1ccc(NC(=O)c2ccc(-c3ccccc3C(F)(F)F)cc2O)cc1` [Compound 21, 3-Hydroxy-2′-trifluoromethyl-biphenyl-4-carboxylic acid (4-tert-butyl-phenyl)-amide], the pKi was > 6.00.

`CC(C)(C)c1ccc(NC(=O)c2ccc(-c3ccccc3F)nc2)cc1` [Compound 443, N-(4-tert-Butyl-phenyl)-6-(2-fluoro-phenyl)-nicotinamide]: the pKi was > 6.00.

For the compound `O=C(Nc1ccc2c(c1)OCCO2)c1ccc(-c2ccccc2F)nc1` [Compound 192, N-(2,3-Dihydro-benzo[1,4]dioxin-6-yl)-6-(2-fluoro-phenyl)-nicotinamide], the pKi was > 6.00.

For the compound `CC(C)(C)c1ccc(NC(=O)c2ccc(-c3cc(C(F)(F)F)ccn3)cc2)cc1` [Compound 422, N-(4-tert-Butyl-phenyl)-4-(4-trifluoromethyl-pyridin-2-yl)-benzamide], the pKi was > 6.00.

Turning to `COc1cccc(NC(=O)c2ccc(-c3ccccc3)nc2)c1` [Compound 282, N-(3-Methoxy-phenyl)-6-phenyl-nicotinamide], the pKi is > 6.00.

Consider `CCCNc1cccnc1-c1ccc(C(=O)Nc2ccc(C(C)(C)C)cc2)cc1` [Compound 419, N-(4-tert-Butyl-phenyl)-4-(3-propylamino-pyridin-2-yl)-benzamide], for which the pKi was > 6.00.

Regarding `O=C(Nc1ccc(C(F)(F)F)cc1)c1ccc(-c2ncccc2C(F)(F)F)cc1[N+](=O)[O-]` [Compound 19, 2-Nitro-N-(4-trifluoromethyl-phenyl)-4-(3-trifluoromethyl-pyridin-2-yl)-benzamide], the pKi was > 6.00.

For the compound `CC(C)(C)c1ccc(NC(=O)c2ccc(-c3ncccc3NO)cc2)cc1` [Compound 411, N-(4-tert-Butyl-phenyl)-4-(3-hydroxyamino-pyridin-2-yl)-benzamide], the pKi was > 6.00.

For `Cc1ccc(NC(=O)c2ccc(-c3cccc(C(C)C)c3)nc2)cc1F` [Compound 267, N-(3-Fluoro-4-methyl-phenyl)-6-(3-isopropyl-phenyl)-nicotinamide], the pKi is > 6.00.

For the compound `CC(C)c1cccc(-c2ccc(C(=O)Nc3ccc4c(c3)OCCCO4)cn2)c1` [Compound 221, N-(3,4-Dihydro-2H-benzo[b][1,4]dioxepin-7-yl)-6-(3-isopropyl-phenyl)-nicotinamide], the pKi is > 6.00.

The values above are taken from patent publication US20060100245A1, “Substituted biphenyl-4-carboxylic acid arylamide analogues” (Neurogen Corporation, priority 2002, published 2006).
